From article PMC6470533, “Structure–Activity Study, Characterization, and Mechanism of Action of an Antimicrobial Peptoid D2 and Its D- and L-Peptide Analogues” (Molecules, 2019)
Converted amounts (≈) assume the structure as drawn. Non-standard residues stand in square brackets, D forms with d. Residues, ends and D or L forms follow the SMILES beside them. N(1-naphthylmethyl)Gly = O=C(O)CNCc1cccc2ccccc12; d1Nal = N[C@H](Cc1cccc2ccccc12)C(=O)O; N(4-MeBn)Gly = Cc1ccc(CNCC(=O)O)cc1; dNle = CCCC[C@@H](N)C(=O)O; NBuGly = CCCCNCC(=O)O; Nlys = NCCCCNCC(=O)O

Assays:
S. aureus = experiment: MIC against canine clinical S. aureus strains (Table S2); assay type: cell-based, Staphylococcus aureus; settings: for MIC S. aureus 25054: 25054, 8 G6, dog, 2009; for MIC S. aureus 25054 / MIC S. aureus 28264 / MIC S. aureus 36968: wound; for MIC S. aureus 27266: 27266, 16 G9, dog, 2010; for MIC S. aureus 27266 / MIC S. aureus 37708-2 / MIC S. aureus 38200 / MIC S. aureus 38565-1: skin; for MIC S. aureus 28264: 28264, 20 B1, dog, 2011; for MIC S. aureus 30935: 30935, 24 B9, dog, 2013; for MIC S. aureus 30935 / MIC S. aureus 37595: joint; for MIC S. aureus 36968: 36968, 61 A9, dog; for MIC S. aureus 36968 / MIC S. aureus 37595 / MIC S. aureus 37708-2 / MIC S. aureus 38200: 2016; for MIC S. aureus 37595: 37595, 65 D2, dog; for MIC S. aureus 37708-2: 37708-2, 66 C6, dog; for MIC S. aureus 38200: 38200, 68 E9, dog; for MIC S. aureus 38565-1: 38565-1, 70 A5, dog; for MIC S. aureus 38565-1 / MIC S. aureus 38841: 2017; for MIC S. aureus 38841: 38841, 70 G5, dog, urine
Description: Similarly, in this study, to assess the degree of selectivity for S. pseudintermedius, D2 and D2D were tested against a collection of S. aureus and MSSP strains (Table S2).
(§1) To explore the antimicrobial activity of the library of peptides and peptidomimetics, they were tested against Acinetobacter baumannii, Corynebacterium auriscanis, Escherichia coli, Enterococcus faecalis, Enterococcus faecium, Klebsiella pneumonia, Proteus mirabilis, and Pseudomonas aeruginosa. Bacteria grown on agar plates for 18 h at 37 °C were diluted to ~1 × 10^8 CFU/mL in Mueller–Hinton broth (MHB). Two-fold serial dilutions of peptides and peptidomimetics in MHB II were inoculated with bacteria to achieve a final concentration of 5 × 10^5 CFU/mL in polypropylene 96 U-well microtiter plates (Almeco, Esbjerg, Denmark), followed by incubation at 37 °C in ambient air for 18 h. The MIC values were determined as the lowest concentration showing no visible bacterial growth. Experiments were performed twice (in technical triplicates) on two different days.

[1] = system: S. pseudintermedius isolates from canine infections; assay type: cell-based, Staphylococcus pseudintermedius; settings: 50 isolates from canine infections
[2] = cited from earlier work
Source text: We have previously described a promising antimicrobial peptoid, D2, which is active against MRSP and P. aeruginosa, resistant to plasma proteases and hepatic clearance in vitro, and is suitable for topical administration to treat superficial pyoderma. In the present study, we investigated the structural features responsible for antimicrobial activity of D2 by (a) performing Gly-scan to analyze the residues crucial for activity; (b) investigating the effects of single substitution in order to increase activity; (c) exploring the effect of the peptoid backbone by exchanging L- and D- amin ...

MRSP ST71 strain E104 = experiment: Growth curve analysis (BioScreen); assay type: cell-based, Staphylococcus pseudintermedius; settings: at the MIC, MRSP E104, OD600, 6 h, 37 °C
Description: First, we performed growth curve analysis using the well-characterized MRSP ST71 strain E104, which is resistant to a number of antibiotics. […] A well-characterized antimicrobial peptide, nisin, was used as control. […] Increased concentrations of nisin inhibited proportionally the growth of E104, both at sub-MIC and MIC concentrations.
The effect of D2 or analogues or nisin on the growth of MRSP strain E104 was evaluated using BioScreen (Oy Growth Curves Ab LTd, Helsinki, Finland). Freshly grown culture of E104 was diluted to OD 0.2 at 600 nm, supplemented with increased concentration of antimicrobials and distributed in a 100 well honeycomb micro-plate with volume 100 μL. The plate was incubated for 6 h at 37 °C with continuous shaking. The OD600 of each micro-culture was measured and recorded every 15 min after a 5 s pause of shaking in automatic mode. Recorded OD was plotted against time to prepare the growth curves. Experiment was performed twice and one representative result was presented.

[3] = system: membrane proton motive force of E104 cells; experiment: DiSC3(5) fluorescence, membrane depolarization; assay type: cell-based, Staphylococcus pseudintermedius; settings: 0.5× MIC, n = 2
Source text: In this study, the DiSC3(5) probe was used to assess the effect of D2 and its structural analogues D2L, D2D, and D2R on cytoplasmic membrane depolarization. DiSC3(5) is a cationic carbocyanine dye, which accumulates on negatively charged membrane, translocates into lipid membrane with a distribution dependent on plasma and mitochondrial membrane potential. Altered emission profile of DiSC3(5) measured via fluorescence spectroscopy indicates membrane depolarization caused by proton motive force dissipation, ATP production and/or pore formation. The increment of DiSC3(5) fluorescence of labeled cells resulting from its leakage upon addition of antimicrobial agents is usually measured over time. The protonophore carbonyl cyanide metachlorophenyl hydrazone (CCCP) is used as positive control, which rapidly dissipates PMF increasing proton permeability, alters both membrane proton gradient and transmembrane electric potential and decreases cellular ATP content. Based on the MIC and growth analysis results, sub-lethal concentrations of D2 and selected analogues were chosen to perform DiSC3(5) fluorescence and macromolecule biosynthesis studies.
Freshly grown E104 cells with OD 0.2 at 600 nm were labeled with 1 µM 3,3-dipropylthiadicarbocyanine iodide [DiSC3(5)] (Sigma-Aldrich, Søborg, Denmark) in MHB. The fluorescence spectra of fluorophore-labeled cells were plotted using the LS-50B luminescence spectrometer (PerkinElmer, Waltham, MA, USA) at excitation/emission wavelengths 546 nm/573 nm using time drive application of FLWINLAB software. After reading initial stable emission spectra of DiSC3(5), labeled cells were exposed with D2 or analogues or nisin or protonophore CCCP by directly injecting the concentrated solution of agent to the cuvette, and the change of fluorescence over time was recorded until emission spectra reached to stability. The increment of DiSC3(5) fluorescence upon addition of antimicrobials or CCCP (FUafter-exposure – FUbefore-exposure) was calculated and plotted in addition to raw fluorescence spectra. Experiment was performed twice and average fluorescence change was plotted with standard deviation.

[4] = system: other selected dog pathogens; experiment: MIC against other selected dog pathogens; assay type: cell-based; settings: summary of Table 4, except for P. mirabilis
Source text: We screened the antimicrobial activity of D2 and the analogue D2D against a number of canine pathogens (Table 4). These included Acinetobacter baumannii, Escherichia coli, Enterococcus faecalis, and Klebsiella pneumoniae isolated from wounds, Corynebacterium auriscanis associated with canine otitis externa, the nosocomial pathogen Enterococcus faecium, the endocartitis-causing Streptococcus canis, and Proteus mirabilis
as §1

For `CCCCN(CC(N)=O)C(=O)CN(CCCCN)C(=O)CN(Cc1cccc2ccccc12)C(=O)CN(CCCCN)C(=O)CN(Cc1ccc(C)cc1)C(=O)CN(Cc1cccc2ccccc12)C(=O)CN(CCCCN)C(=O)CNCCCCN` [D2] (H-[Nlys][Nlys][N(1-naphthylmethyl)Gly][N(4-MeBn)Gly][Nlys][N(1-naphthylmethyl)Gly][Nlys][NBuGly]-NH2), the “MIC S. aureus 25054” value (S. aureus) was 4 µg/mL (≈ 3.34 µM), the “MIC S. aureus 27266” value (S. aureus) was 8 µg/mL (≈ 6.67 µM) and the “MIC S. aureus 28264” value (S. aureus) was 4 µg/mL (≈ 3.34 µM). For the same compound, the “MIC S. aureus 30935” value (S. aureus) was 4 µg/mL (≈ 3.34 µM), the “MIC S. aureus 36968” value (S. aureus) was 4 µg/mL (≈ 3.34 µM) and the “MIC S. aureus 37595” value (S. aureus) was 4 µg/mL (≈ 3.34 µM). The “MIC S. aureus 37708-2” value (S. aureus) was 8 µg/mL (≈ 6.67 µM), the “MIC S. aureus 38200” value (S. aureus) was 4 µg/mL (≈ 3.34 µM) and the “MIC S. aureus 38565-1” value (S. aureus) was 4 µg/mL (≈ 3.34 µM). The “MIC S. aureus 38841” value (S. aureus) was 8 µg/mL (≈ 6.67 µM), the “MIC range, panel of 50 S. pseudintermedius isolates” value [1] was 1.56 to 3.12 µM and the “resistance to hepatic clearance” value [2] was “resistant”. For the same compound, the “resistance to plasma proteases” value [2] was “resistant” and the “growth curve, change of cell optical density over time” value (MRSP ST71 strain E104) was “cell lysis”.

In the case of `CCCC[C@@H](NC(=O)[C@@H](CCCCN)NC(=O)[C@@H](Cc1cccc2ccccc12)NC(=O)[C@@H](CCCCN)NC(=O)[C@@H](Cc1ccccc1)NC(=O)[C@@H](Cc1cccc2ccccc12)NC(=O)[C@@H](CCCCN)NC(=O)[C@H](N)CCCCN)C(N)=O` [D2D] (H-[dK][dK][d1Nal][dF][dK][d1Nal][dK][dNle]-NH2), the “effect on PMF (membrane depolarization, DiSC3(5) fluorescence)” value [3] is reported as “lowest activity on PMF”, the “MIC S. aureus 25054” value (S. aureus) is reported as 2 µg/mL (≈ 1.69 µM) and the “MIC S. aureus 27266” value (S. aureus) is reported as 2 µg/mL (≈ 1.69 µM). For the same compound, the “MIC S. aureus 28264” value (S. aureus) was 4 µg/mL (≈ 3.38 µM), the “MIC S. aureus 30935” value (S. aureus) was 2 µg/mL (≈ 1.69 µM) and the “MIC S. aureus 36968” value (S. aureus) was 4 µg/mL (≈ 3.38 µM). The “MIC S. aureus 37595” value (S. aureus) was 2 µg/mL (≈ 1.69 µM), the “MIC S. aureus 37708-2” value (S. aureus) was 4 µg/mL (≈ 3.38 µM) and the “MIC S. aureus 38200” value (S. aureus) was 2 µg/mL (≈ 1.69 µM). The “MIC S. aureus 38565-1” value (S. aureus) was 2 µg/mL (≈ 1.69 µM), the “MIC S. aureus 38841” value (S. aureus) was 4 µg/mL (≈ 3.38 µM) and the “growth curve, change of cell optical density over time” value (MRSP ST71 strain E104) was “cell lysis”. The “MIC range against other selected dog pathogens” value [4] was 2 to 16 µg/mL.
